# Reference: ChEMBL document CHEMBL4507299, “Data for DCP probe PF-04554878” (2021)
# How the values were obtained:
# [1] = target: Serine/threonine-protein kinase tousled-like 2 (Homo sapiens) (UniProt Q86UE8)
# [2] = target: Receptor-type tyrosine-protein kinase FLT3 (Homo sapiens) (UniProt P36888)
# [3] = test system: Tyrosine-protein kinase ABL1 (Homo sapiens), P00519 [T315I]
# [4] = target: Serine/threonine-protein kinase WNK1 (Homo sapiens) (UniProt Q9H4A3)
# [5] = target: Serine/threonine-protein kinase PLK2 (Homo sapiens) (UniProt Q9NYY3)
# Sequence of Serine/threonine-protein kinase PLK2 (Homo sapiens) (Q9NYY3 whole entry, looked up): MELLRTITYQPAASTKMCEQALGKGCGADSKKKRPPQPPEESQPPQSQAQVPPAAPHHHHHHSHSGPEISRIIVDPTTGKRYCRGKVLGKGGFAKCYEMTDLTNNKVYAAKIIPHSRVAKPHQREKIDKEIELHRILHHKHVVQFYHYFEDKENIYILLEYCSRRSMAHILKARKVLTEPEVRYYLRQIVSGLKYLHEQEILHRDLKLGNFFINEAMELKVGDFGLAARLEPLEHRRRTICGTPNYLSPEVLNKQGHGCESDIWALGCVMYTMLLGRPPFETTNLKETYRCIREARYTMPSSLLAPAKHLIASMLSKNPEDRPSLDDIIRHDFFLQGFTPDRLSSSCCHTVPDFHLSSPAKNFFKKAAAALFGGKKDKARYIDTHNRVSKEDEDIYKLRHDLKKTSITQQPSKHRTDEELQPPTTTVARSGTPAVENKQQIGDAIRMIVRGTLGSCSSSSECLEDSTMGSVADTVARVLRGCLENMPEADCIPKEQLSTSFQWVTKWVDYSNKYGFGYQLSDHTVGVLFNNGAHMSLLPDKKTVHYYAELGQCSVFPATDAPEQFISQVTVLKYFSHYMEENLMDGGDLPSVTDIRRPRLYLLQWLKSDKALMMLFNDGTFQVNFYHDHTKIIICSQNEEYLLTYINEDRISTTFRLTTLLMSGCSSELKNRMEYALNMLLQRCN
# [6] = target: Aurora kinase B (Homo sapiens) (UniProt Q96GD4)
# Sequence of Aurora kinase B (Homo sapiens) (Q96GD4 whole entry): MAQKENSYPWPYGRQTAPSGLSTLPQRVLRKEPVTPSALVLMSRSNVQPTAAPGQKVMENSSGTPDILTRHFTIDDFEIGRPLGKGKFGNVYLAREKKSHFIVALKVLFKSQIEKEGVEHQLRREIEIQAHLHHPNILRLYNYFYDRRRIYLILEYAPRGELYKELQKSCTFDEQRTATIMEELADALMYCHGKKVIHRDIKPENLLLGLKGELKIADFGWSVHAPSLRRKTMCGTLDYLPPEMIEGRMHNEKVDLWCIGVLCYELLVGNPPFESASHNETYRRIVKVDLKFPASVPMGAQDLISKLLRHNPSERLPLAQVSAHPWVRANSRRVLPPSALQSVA
# [7] = target: T1, Tyrosine-protein kinase JAK3 (Homo sapiens) (UniProt P52333)
# T1 sequence (whole entry): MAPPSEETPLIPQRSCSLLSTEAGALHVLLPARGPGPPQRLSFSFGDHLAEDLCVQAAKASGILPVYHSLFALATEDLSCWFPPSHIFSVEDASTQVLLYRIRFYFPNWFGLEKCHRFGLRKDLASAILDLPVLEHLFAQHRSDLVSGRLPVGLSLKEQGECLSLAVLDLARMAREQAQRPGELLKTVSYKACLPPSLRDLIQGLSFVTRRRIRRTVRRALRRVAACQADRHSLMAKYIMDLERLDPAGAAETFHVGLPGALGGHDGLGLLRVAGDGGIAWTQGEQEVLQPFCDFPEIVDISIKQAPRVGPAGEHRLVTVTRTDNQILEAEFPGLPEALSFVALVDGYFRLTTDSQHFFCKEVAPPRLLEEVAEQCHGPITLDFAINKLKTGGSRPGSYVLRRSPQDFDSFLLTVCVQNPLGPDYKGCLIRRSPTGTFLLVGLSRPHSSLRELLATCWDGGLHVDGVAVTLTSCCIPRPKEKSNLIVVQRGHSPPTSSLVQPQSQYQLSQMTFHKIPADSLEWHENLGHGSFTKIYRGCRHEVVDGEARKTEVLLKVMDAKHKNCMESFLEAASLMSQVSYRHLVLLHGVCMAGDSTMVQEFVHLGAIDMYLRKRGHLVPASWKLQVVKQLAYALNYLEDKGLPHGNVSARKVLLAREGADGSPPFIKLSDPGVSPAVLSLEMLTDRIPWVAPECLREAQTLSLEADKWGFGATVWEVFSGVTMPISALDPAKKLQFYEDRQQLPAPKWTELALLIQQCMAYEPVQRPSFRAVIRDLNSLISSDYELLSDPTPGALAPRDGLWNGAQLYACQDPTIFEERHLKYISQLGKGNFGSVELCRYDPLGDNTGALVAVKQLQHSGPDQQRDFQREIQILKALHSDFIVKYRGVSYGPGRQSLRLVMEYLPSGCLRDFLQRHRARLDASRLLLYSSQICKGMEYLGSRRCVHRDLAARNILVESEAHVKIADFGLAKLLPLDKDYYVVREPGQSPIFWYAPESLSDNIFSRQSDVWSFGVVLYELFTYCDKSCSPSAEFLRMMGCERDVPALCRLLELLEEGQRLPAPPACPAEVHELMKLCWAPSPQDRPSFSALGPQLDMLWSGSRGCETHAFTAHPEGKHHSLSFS
# [8] = target: Alpha-1B adrenergic receptor (Homo sapiens) (UniProt P35368); conditions: Compound concentration 10.0 uM
# [9] = target: Ankyrin repeat and protein kinase domain-containing protein 1 (Homo sapiens) (UniProt Q8NFD2)
# [10] = target: Tyrosine-protein kinase BTK (Homo sapiens) (UniProt Q06187)
# [11] = target: MAP/microtubule affinity-regulating kinase 3 (Homo sapiens) (UniProt P27448)
# [12] = target: Mitogen-activated protein kinase kinase kinase kinase 1 (Homo sapiens) (UniProt Q92918)
# [13] = target: Receptor-interacting serine/threonine-protein kinase 4 (Homo sapiens) (UniProt P57078)
# [14] = target: Activin receptor type-1 (Homo sapiens) (UniProt Q04771)
# Sequence of Activin receptor type-1 (Homo sapiens) (Q04771 whole entry): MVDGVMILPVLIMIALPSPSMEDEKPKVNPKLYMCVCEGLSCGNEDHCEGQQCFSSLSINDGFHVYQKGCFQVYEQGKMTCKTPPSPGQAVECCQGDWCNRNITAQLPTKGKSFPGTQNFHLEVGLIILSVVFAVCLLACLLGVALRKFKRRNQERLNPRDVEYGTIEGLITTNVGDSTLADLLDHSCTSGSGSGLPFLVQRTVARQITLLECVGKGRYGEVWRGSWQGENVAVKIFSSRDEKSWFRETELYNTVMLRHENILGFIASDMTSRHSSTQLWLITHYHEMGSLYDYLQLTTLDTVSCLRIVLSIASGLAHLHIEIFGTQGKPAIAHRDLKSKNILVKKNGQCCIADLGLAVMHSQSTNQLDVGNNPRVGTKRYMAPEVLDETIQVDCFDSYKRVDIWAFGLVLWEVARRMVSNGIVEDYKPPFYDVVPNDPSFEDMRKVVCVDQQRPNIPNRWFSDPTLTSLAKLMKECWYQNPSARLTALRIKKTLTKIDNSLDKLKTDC
# [15] = target: Serine/threonine-protein kinase 25 (Homo sapiens) (UniProt O00506)
# [16] = target: Ephrin type-B receptor 6 (Homo sapiens) (UniProt O15197)
# [17] = target: 5'-AMP-activated protein kinase catalytic subunit alpha-1 (Homo sapiens) (UniProt Q13131)
# [18] = test system: Receptor-type tyrosine-protein kinase FLT3 (Homo sapiens), P36888 [D835Y]
# [19] = target: Mitogen-activated protein kinase kinase kinase 9 (Homo sapiens, UniProt P80192)
# Sequence of Mitogen-activated protein kinase kinase kinase 9 (P80192 whole entry, looked up): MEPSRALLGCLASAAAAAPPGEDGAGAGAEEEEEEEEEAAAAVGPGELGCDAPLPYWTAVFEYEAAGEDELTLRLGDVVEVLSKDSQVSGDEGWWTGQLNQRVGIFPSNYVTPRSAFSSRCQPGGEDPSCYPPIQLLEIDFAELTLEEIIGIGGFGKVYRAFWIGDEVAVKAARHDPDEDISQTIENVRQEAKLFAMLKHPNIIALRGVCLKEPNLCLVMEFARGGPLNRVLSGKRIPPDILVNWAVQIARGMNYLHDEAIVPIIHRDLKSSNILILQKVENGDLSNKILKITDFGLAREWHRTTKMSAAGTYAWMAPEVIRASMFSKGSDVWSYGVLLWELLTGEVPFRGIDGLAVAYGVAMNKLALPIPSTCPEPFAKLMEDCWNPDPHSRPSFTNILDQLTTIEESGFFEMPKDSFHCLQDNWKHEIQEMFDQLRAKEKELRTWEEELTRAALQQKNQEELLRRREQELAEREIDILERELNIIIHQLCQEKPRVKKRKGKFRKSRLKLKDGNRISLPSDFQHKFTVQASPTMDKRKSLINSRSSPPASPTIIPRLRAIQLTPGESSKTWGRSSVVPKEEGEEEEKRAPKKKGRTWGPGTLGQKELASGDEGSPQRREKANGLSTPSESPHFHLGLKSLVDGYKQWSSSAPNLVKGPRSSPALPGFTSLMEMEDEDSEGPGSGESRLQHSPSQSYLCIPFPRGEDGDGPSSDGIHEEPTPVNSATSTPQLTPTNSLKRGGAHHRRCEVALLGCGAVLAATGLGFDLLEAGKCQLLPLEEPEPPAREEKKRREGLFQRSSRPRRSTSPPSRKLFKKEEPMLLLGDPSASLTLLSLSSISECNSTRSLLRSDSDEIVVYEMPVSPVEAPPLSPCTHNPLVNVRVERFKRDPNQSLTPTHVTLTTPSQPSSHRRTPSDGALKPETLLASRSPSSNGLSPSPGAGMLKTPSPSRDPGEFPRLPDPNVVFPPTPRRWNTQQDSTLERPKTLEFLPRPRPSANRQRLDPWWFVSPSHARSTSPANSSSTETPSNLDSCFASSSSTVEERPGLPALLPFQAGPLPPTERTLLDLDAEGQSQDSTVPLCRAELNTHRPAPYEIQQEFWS
# [20] = target: Serine/threonine-protein kinase NLK (Homo sapiens) (UniProt Q9UBE8)
# [21] = target: Proto-oncogene tyrosine-protein kinase ROS (Homo sapiens) (UniProt P08922)
# [22] = target: Serine/threonine-protein kinase TAO2 (Homo sapiens) (UniProt Q9UL54)
# [23] = test system: Tyrosine-protein kinase ABL1 (Homo sapiens), P00519 [Q252H]
# [24] = target: SRSF protein kinase 3 (Homo sapiens) (UniProt Q9UPE1)
# [25] = test system: Tyrosine-protein kinase ABL1 (Homo sapiens), P00519 [E255K]
# [26] = test system: Receptor-type tyrosine-protein kinase FLT3 (Homo sapiens), P36888 [D835H]
# [27] = target: Discoidin domain-containing receptor 2 (Homo sapiens) (UniProt Q16832)
# [28] = target: Activin receptor type-1B (Homo sapiens) (UniProt P36896)
# [29] = target: Serine/threonine-protein kinase ULK3 (Homo sapiens) (UniProt Q6PHR2)
# [30] = target: Mitogen-activated protein kinase kinase kinase 5 (Homo sapiens) (UniProt Q99683)
# [31] = Compound concentration 100.0 nM
# [32] = Compound concentration 1000.0 nM
# Sequence of Serine/threonine-protein kinase WNK1 (Homo sapiens) (Q9H4A3 whole entry, looked up): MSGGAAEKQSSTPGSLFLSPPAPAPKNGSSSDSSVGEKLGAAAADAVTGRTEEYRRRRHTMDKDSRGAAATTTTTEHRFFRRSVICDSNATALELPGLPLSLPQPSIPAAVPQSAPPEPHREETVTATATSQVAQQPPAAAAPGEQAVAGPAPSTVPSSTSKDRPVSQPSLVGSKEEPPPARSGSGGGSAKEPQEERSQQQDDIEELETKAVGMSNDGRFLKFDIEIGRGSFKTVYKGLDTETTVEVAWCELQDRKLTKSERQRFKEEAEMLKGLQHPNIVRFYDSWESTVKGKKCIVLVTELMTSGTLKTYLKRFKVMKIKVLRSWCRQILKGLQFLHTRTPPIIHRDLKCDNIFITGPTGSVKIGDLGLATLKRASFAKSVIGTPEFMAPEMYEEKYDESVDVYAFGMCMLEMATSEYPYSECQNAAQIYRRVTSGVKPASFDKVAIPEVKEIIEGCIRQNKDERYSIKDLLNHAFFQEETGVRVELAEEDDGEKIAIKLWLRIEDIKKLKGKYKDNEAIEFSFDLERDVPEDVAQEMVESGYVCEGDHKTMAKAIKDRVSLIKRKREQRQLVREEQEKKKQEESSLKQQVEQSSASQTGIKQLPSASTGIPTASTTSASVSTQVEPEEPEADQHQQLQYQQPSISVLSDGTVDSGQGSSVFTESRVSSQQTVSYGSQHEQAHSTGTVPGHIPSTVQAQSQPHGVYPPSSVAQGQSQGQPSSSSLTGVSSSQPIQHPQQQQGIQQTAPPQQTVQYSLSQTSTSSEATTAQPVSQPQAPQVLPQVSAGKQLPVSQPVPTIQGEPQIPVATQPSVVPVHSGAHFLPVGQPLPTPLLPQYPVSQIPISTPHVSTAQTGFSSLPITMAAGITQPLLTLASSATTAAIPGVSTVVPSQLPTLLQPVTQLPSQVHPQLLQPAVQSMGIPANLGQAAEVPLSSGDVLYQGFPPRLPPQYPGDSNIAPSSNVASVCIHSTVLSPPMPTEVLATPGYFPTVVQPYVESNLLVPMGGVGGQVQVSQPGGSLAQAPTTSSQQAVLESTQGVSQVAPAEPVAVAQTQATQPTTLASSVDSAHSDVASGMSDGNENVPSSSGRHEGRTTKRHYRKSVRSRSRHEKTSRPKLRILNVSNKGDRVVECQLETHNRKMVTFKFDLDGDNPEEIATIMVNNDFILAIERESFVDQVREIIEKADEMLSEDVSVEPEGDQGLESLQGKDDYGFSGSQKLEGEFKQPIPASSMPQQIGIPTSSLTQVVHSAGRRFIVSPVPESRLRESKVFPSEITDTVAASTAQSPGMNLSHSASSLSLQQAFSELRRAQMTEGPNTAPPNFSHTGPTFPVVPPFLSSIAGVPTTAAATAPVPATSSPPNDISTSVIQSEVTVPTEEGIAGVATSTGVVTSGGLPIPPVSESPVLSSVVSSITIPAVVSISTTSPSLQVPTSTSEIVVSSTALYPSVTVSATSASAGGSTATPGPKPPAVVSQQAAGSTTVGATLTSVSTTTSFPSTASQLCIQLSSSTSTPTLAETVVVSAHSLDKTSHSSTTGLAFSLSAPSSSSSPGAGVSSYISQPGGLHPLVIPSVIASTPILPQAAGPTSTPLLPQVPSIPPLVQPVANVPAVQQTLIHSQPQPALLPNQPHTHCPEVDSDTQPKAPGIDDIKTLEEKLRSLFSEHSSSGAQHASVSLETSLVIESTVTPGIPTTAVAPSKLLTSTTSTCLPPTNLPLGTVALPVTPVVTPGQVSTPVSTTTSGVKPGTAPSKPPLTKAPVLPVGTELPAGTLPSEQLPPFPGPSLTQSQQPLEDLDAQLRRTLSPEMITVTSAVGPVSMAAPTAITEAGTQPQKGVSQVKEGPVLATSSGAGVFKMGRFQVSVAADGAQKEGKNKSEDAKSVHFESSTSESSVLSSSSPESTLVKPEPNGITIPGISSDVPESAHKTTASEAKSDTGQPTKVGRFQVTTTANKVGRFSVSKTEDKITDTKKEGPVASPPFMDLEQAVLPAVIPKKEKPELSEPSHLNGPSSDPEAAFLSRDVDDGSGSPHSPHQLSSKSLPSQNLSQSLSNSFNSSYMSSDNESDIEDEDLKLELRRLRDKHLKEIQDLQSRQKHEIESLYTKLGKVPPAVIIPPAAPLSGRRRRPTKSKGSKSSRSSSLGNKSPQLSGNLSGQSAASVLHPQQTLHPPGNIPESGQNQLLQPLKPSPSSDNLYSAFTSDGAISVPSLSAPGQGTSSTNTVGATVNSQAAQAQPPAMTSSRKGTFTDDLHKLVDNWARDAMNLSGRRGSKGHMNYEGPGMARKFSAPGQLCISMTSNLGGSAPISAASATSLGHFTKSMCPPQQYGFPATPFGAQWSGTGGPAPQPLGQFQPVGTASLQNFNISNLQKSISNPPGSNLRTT
structure (smiles),measurement,setting,value
CNC(=O)c1ccc(Nc2ncc(C(F)(F)F)c(NCc3nccnc3N(C)S(C)(=O)=O)n2)cc1 [DEFACTINIB],residual activity,[1]; [31],90%
same,residual activity,[2]; [31],74%
same,residual activity,[3]; [31],93%
same,residual activity,[4]; [31],100%
same,residual activity,[5]; [31],77%
same,residual activity,[6]; [31],73%
same,residual activity,[7]; [31],8.2%
same,inhibition,[8],-0.22%
same,residual activity,[9]; [31],88%
same,residual activity,[10]; [31],83%
same,residual activity,[11]; [31],90%
same,residual activity,[12]; [31],18%
same,residual activity,[13]; [31],89%
same,residual activity,[14]; [31],100%
same,residual activity,[15]; [31],85%
same,residual activity,[16]; [31],100%
same,residual activity,[17]; [31],84%
same,residual activity,[18]; [31],5.9%
same,residual activity,[19]; [31],44%
same,residual activity,[20]; [31],100%
same,residual activity,[21]; [31],58%
same,residual activity,[22]; [31],92%
same,residual activity,[23]; [31],98%
same,residual activity,[24]; [31],100%
same,residual activity,[25]; [31],100%
same,residual activity,[26]; [31],9.8%
same,residual activity,[27]; [31],100%
same,residual activity,[28]; [31],69%
same,residual activity,[29]; [31],75%
same,residual activity,[30]; [31],100%
CN(c1ccnc(CNc2nc(Nc3ccc4c(c3)CC(=O)N4)ncc2C(F)(F)F)n1)S(C)(=O)=O [PF-00911705],residual activity,[1]; [32],100%
same,residual activity,[2]; [32],64%
same,residual activity,[3]; [32],36%
same,residual activity,[4]; [32],87%
same,residual activity,[5]; [32],0.5%
same,residual activity,[6]; [32],9.9%
same,residual activity,[7]; [32],1.9%
same,inhibition,[8],0.5%
same,residual activity,[9]; [32],84%
same,residual activity,[10]; [32],63%
same,residual activity,[11]; [32],52%
same,residual activity,[12]; [32],33%
same,residual activity,[13]; [32],6%
same,residual activity,[14]; [32],91%
same,residual activity,[15]; [32],82%
same,residual activity,[16]; [32],54%
same,residual activity,[17]; [32],80%
same,residual activity,[18]; [32],2%
same,residual activity,[19]; [32],41%
same,residual activity,[20]; [32],98%
same,residual activity,[21]; [32],43%
same,residual activity,[22]; [32],58%
same,residual activity,[23]; [32],94%
same,residual activity,[24]; [32],11%
same,residual activity,[25]; [32],34%
same,residual activity,[26]; [32],15%
same,residual activity,[27]; [32],94%
same,residual activity,[28]; [32],26%
same,residual activity,[29]; [32],25%
same,residual activity,[30]; [32],100%
